Measurements: PubChem BioAssay AID256 (DTP/NCI, 2004)
Inconclusive results and toxic doses are left out. How the source made its calls: active means survival T/C of 150% or more; inactive means T/C below 125% in these data.

Test system: CD2F1 mice, L1210 leukemia ip, survival T/C
Assay: NCI In Vivo Anticancer Drug Screen. Data for tumor model L1210 Leukemia (intraperitoneal) in CD2F1 (CDF1) mice
Conditions: endpoint: mean survival time, higher = longer survival
In short: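 Ratio T/C, where T is the treated-group value and C the vehicle-dosed control value, from mice implanted with a transplantable tumor.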

[1] = dose: 100.0 mg/kg/injection, schedule: Q04DX003 (ip), vehicle: saline with Tween-80
[2] = dose: 200.0 mg/kg/injection, schedule: Q04DX003 (ip), vehicle: saline with Tween-80
[3] = dose: 400.0 mg/kg/injection, schedule: Q04DX003 (ip), vehicle: saline with Tween-80
[4] = dose: 100.0 mg/kg/injection, schedule: Q01DX001 (ip), vehicle: saline with Tween-80
[5] = dose: 200.0 mg/kg/injection, schedule: Q01DX001 (ip), vehicle: saline with Tween-80
[6] = dose: 400.0 mg/kg/injection, schedule: Q01DX001 (ip), vehicle: saline with Tween-80
[7] = dose: 100.0 mg/kg/injection, schedule: Q01DX009 (ip), vehicle: saline with Tween-80
[8] = dose: 200.0 mg/kg/injection, schedule: Q01DX009 (ip), vehicle: saline with Tween-80
[9] = dose: 400.0 mg/kg/injection, schedule: Q01DX009 (ip), vehicle: saline with Tween-80
[10] = dose: 200.0 mg/kg/injection, schedule: Q01DX001 (ip), vehicle: saline
[11] = dose: 12.5 mg/kg/injection, schedule: Q01DX009 (ip), vehicle: saline with Tween-80
[12] = dose: 25.0 mg/kg/injection, schedule: Q01DX009 (ip), vehicle: saline with Tween-80
[13] = dose: 50.0 mg/kg/injection, schedule: Q01DX009 (ip), vehicle: saline with Tween-80

Measured: T/C

Cc1ccc(NC(=O)COc2ccc(Cl)cc2Cl)cc1Cl
inactive: [1] 93 % of control | [2] 98 % of control | [3] 88 % of control

NNC(=O)c1ccc(O)cc1
inactive: [4] 90 % of control | [5] 94 % of control | [6] 96 % of control

CCCCCCCCCCCCCCOc1ccc(OCCCCCCCCCCC)cc1
inactive: [5] 89 % of control | [6] 89 % of control

C/C(=N/NC(=O)c1ccccc1)c1ccc(O)cc1
inactive: [7] 96 % of control | [1] 96 % of control | [8] 97 % of control | [2] 98 % of control | [9] 91 % of control | [3] 100 % of control

O=C(O)Cc1ccc(Cl)c(Cl)c1
inactive: dose: 50.0 mg/kg/injection, schedule: Q04DX003 (ip), vehicle: other 97 % of control | dose: 100.0 mg/kg/injection, schedule: Q04DX003 (ip), vehicle: other 100 % of control | dose: 200.0 mg/kg/injection, schedule: Q04DX003 (ip), vehicle: other 96 % of control

COC(=O)Nc1ccccc1
inactive: dose: 100.0 mg/kg/injection, schedule: Q04DX003 (ip), vehicle: saline + alcohol 101 % of control | dose: 200.0 mg/kg/injection, schedule: Q04DX003 (ip), vehicle: saline + alcohol 98 % of control | dose: 400.0 mg/kg/injection, schedule: Q04DX003 (ip), vehicle: saline + alcohol 98 % of control

O=[N+]([O-])c1ccc(O)c(C[P+](c2ccccc2)(c2ccccc2)c2ccccc2)c1
inactive: [7] 93 % of control | [8] 95 % of control | [9] 102 % of control

Nc1ncc2c(n1)SCC2
inactive: [10] 119 % of control

C=CC1(O)CCCCC1
inactive: [4] 100 % of control | [5] 100 % of control | [6] 97 % of control

O=[N+]([O-])c1ccc(-n2[nH]nnc2=S)cc1
inactive: [11] 95 % of control | [12] 93 % of control | [13] 102 % of control | dose: 100.0 mg/kg/injection, schedule: Q01DX009 (ip), vehicle: acetone 95 % of control | [7] 96 % of control | dose: 200.0 mg/kg/injection, schedule: Q01DX009 (ip), vehicle: acetone 94 % of control | [8] 96 % of control | [9] 93 % of control

C=C1C(=O)OC2CC1C(OC(=O)/C=C/c1ccccc1)C/C(C)=C/CC/C(C)=C/CCC2(C)O (centres undefined)
inactive: dose: 12.5 mg/kg/injection, schedule: Q01DX009 (ip), vehicle: Klucel (hydroxypropylcellulose) (HPC) 96 % of control | dose: 25.0 mg/kg/injection, schedule: Q01DX009 (ip), vehicle: Klucel (hydroxypropylcellulose) (HPC) 98 % of control | dose: 50.0 mg/kg/injection, schedule: Q01DX009 (ip), vehicle: Klucel (hydroxypropylcellulose) (HPC) 98 % of control | dose: 100.0 mg/kg/injection, schedule: Q01DX009 (ip), vehicle: Klucel (hydroxypropylcellulose) (HPC) 102 % of control

Cc1ccc([N+](=O)[O-])cc1NC(=O)NNC(=O)CNC(=O)c1ccc(Cl)cc1
inactive: [7] 88 % of control | [8] 94 % of control | [9] 107 % of control

CCCCC(=O)c1cc(O)ccc1O
inactive: dose: 100.0 mg/kg/injection, schedule: Q01DX001 (ip), vehicle: saline 107 % of control | [10] 98 % of control | dose: 400.0 mg/kg/injection, schedule: Q01DX001 (ip), vehicle: saline 92 % of control

CC1(C)CC([NH-])(C(=O)O)CC(C)(C)N1O.CC1(C)CC([NH-])(C(=O)O)CC(C)(C)N1O.[Zn+2]
inactive: [11] 96 % of control | [12] 96 % of control | [13] 96 % of control | [7] 93 % of control
